Measurements taken from US7807686B2, “2-(4-oxo-4H-quinazolin-3-yl)acetamides and their use as vasopressin V3 antagonists” (N.V. Organon, priority 2005, dated 2010).
Where a name gives a salt, the structure may show the parent alone.

target: T1, human V3 receptor (Homo sapiens, UniProt P47901); assay: [3H]AVP binding to CHO cells stably expressing the human V3 receptor; conditions: Ki from displacement of [3H]AVP (2.5×10^-9 mol.L^-1)
T1 construct: expressed in transfected cells
T1 sequence (P47901 1-424): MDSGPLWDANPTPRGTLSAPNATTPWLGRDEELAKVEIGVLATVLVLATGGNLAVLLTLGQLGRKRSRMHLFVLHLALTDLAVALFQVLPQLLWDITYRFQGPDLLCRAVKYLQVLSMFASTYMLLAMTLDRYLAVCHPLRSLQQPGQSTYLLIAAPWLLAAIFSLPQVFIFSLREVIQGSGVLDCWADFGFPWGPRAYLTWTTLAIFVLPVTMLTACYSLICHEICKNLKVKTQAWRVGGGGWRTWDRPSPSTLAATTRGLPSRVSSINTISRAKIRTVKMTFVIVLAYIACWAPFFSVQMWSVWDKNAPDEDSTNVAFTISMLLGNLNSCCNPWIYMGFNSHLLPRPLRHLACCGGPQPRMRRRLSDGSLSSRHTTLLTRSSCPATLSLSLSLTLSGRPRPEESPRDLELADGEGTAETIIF
Description: Chinese Hamster Ovary (CHO) cells stably expressing the human V3 receptor were incubated to equilibrium with the test compound (at a final assay concentration of 10^−11 mol.L^−1 to 10^−5 mol.L^−1) and [^3H]AVP (at a final assay concentration of 2.5×10^−9 mol.L^−1). […] After washing with ice-cold phosphate buffered saline (PBS), scintillation fluid was added and the plates counted on a Topcount NXT apparatus.
A sigmoidal dose response curve (non-linear regression, variable slope) was plotted as concentration of test compound (mol.L^−1) against percentage specific binding of [^3H]AVP and a Ki value was calculated. Each determination was carried out in triplicate and repeated on at least 3 separate occasions

Row | SMILES | Ki [nM]
1 | CC(C)NC(=O)Cn1c(-c2cc(F)c(F)c(F)c2)nc2ccc(OCCCN3CCCCC3)cc2c1=O [EXAMPLE 1f, N-Isopropyl-2-[4-oxo-6-(3-piperidin-1-ylpropoxy)-2-(3,4,5-trifluorophenyl)-4H-quinazolin-3-yl]acetamide] | 10 to 100
2 | COc1cccc(-c2nc3ccc(OCCCN4CCCCC4)cc3c(=O)n2CC(=O)NC(C)C)n1 [EXAMPLE 1h, N-Isopropyl-2-[2-(6-methoxypyridin-2-yl)-4-oxo-6-(3-piperidin-1-ylpropoxy)-4H-quinazolin-3-yl]acetamide] | < 10
3 | CC(C)(C)NC(=O)Cn1c(-c2cccc(Cl)c2)nc2ccc(OCCCN3CCCCC3)cc2c1=O [EXAMPLE 2f, N-tert-Butyl-2-[2-(3-chlorophenyl)-4-oxo-6-(3-piperidin-1-ylpropoxy)-4H-quinazolin-3-yl]acetamide] | < 10
4 | COc1cc(-c2nc3ccc(OCCCN4CCC(O)CC4)cc3c(=O)n2CC(=O)NC(C)C)ccc1F [EXAMPLE 2p, 2-{2-(4-Fluoro-3-methoxyphenyl)-6-[3-(4-hydroxypiperidin-1-yl)propoxy]-4-oxo-4H-quinazolin-3-yl}-N-isopropylacetamide] | < 10
5 | COc1cccc(-c2nc3cc(C)c(OCCCN4CCCCC4)cc3c(=O)n2CC(=O)NC(C)C)c1 [EXAMPLE 2w, N-Isopropyl-2-[2-(3-methoxyphenyl)-7-methyl-4-oxo-6-(3-piperidin-1-ylpropoxy)-4H-quinazolin-3-yl]acetamide] | < 10
6 | CC(C)NC(=O)Cn1c(-c2cccc(Cl)c2)nc2ccc(OCCCN3CCCCC3)cc2c1=O [EXAMPLE 3a, 2-[2-(3-Chlorophenyl)-4-oxo-6-(3-piperidin-1-ylpropoxy)-4H-quinazolin-3-yl]-N-isopropylacetamide hydrochloride] | < 10
7 | COc1cc(OC)cc(-c2nc3ccc(OCCCN4CCOCC4)cc3c(=O)n2CC(=O)NCC2CC2)c1 [EXAMPLE 3k, N-Cyclopropylmethyl-2-[2-(3,5-dimethoxyphenyl)-6-(3-morpholin-4-ylpropoxy)-4-oxo-4H-quinazolin-3-yl]acetamide] | < 10
8 | COc1ccc(CN(CCCN2CCCCC2)c2ccc3nc(-c4cccc(OC)c4)n(CC(=O)NC(C)C)c(=O)c3c2)cc1 [EXAMPLE 3r, N-Isopropyl-2-[6-[(4-methoxybenzyl)-(3-piperidin-1-ylpropyl)amino]-2-(3-methoxyphenyl)-4-oxo-4H-quinazolin-3-yl]acetamide] | 10 to 100
9 | COc1cccc(-c2nc3ccc(SCCCN4CCCCC4)cc3c(=O)n2CC(=O)NC(C)C)c1 [EXAMPLE 3t, N-Isopropyl-2-[2-(3-methoxyphenyl)-4-oxo-6-(3-piperidin-1-ylpropylsulfanyl)-4H-quinazolin-3-yl]acetamide] | 10 to 100
10 | CC(C)NC(=O)Cn1c(-c2cccc(F)c2)nc2ccc(OC[C@@H](C)CN3CCOCC3)cc2c1=O [EXAMPLE 4g, (S)-(+)-2-[2-(3-Fluorophenyl)-6-(2-methyl-3-morpholin-4-ylpropoxy)-4-oxo-4H-quinazolin-3-yl]-N-isopropylacetamide] | < 10
11 | COc1cccc(-c2nc3ccc(OC[C@@H](C)CN4CCC4)cc3c(=O)n2CC(=O)NC(C)C)c1 [EXAMPLE 4i, (S)-(+)-2-[6-(3-Azetidin-1-yl-2-methylpropoxy)-2-(3-methoxyphenyl)-4-oxo-4H-quinazolin-3-yl]-N-isopropylacetamide] | 10 to 100

Further lines, results first:

Row | Ki [nM] | SMILES
12 | < 10 | CCCNC(=O)Cn1c(-c2cccc(OC)c2)nc2ccc(OC[C@@H](C)CN3CCCCC3)cc2c1=O [EXAMPLE 4n, (S)-(+)-2-[2-(3-Methoxyphenyl)-6-(2-methyl-3-piperidin-1-ylpropoxy)-4-oxo-4H-quinazolin-3-yl]-N-propylacetamide]
13 | 100 to 1000 | O=C(Cn1c(-c2ccccc2)nc2ccc(OCCCN3CCCCCC3)cc2c1=O)NCC1CC1 [EXAMPLE 4q, 2-[6-(3-Azepan-1-ylpropoxy)-4-oxo-2-phenyl-4H-quinazolin-3-yl]-N-cyclopropylmethylacetamide]
14 | < 10 | COc1cccc(-c2nc3ccc(-c4cc(CN(C)C)ccc4F)cc3c(=O)n2CC(=O)NC(C)C)c1 [EXAMPLE 6a, 2-[6-(5-Dimethylaminomethyl-2-fluorophenyl)-2-(3-methoxyphenyl)-4-oxo-4H-quinazolin-3-yl]-N-isopropylacetamide]
15 | 10 to 100 | COc1cccc(-c2nc3ccc(-c4cccc(CN(C)C)n4)cc3c(=O)n2CC(=O)NC(C)C)c1 [EXAMPLE 6b, 2-[6-(6-Dimethylaminomethylpyridin-2-yl)-2-(3-methoxyphenyl)-4-oxo-4H-quinazolin-3-yl]-N-isopropylacetamide]
16 | 10 to 100 | COc1cccc(-c2nc3ccc(-c4cccc(CN(C)CC(C)C)c4)cc3c(=O)n2CC(=O)NC(C)C)c1 [EXAMPLE 7p, 2-[6-{3-[(Isobutylmethylamino)methyl]phenyl}-2-(3-methoxyphenyl)-4-oxo-4H-quinazolin-3-yl]-N-isopropylacetamide]
17 | < 10 | COc1cccc(-c2nc3ccc(-c4cccc(CN5CCOCC5)c4)cc3c(=O)n2CC(=O)NC(C)C)c1 [EXAMPLE 7u, N-Isopropyl-2-[2-(3-methoxyphenyl)-6-(3-morpholin-4-ylmethylphenyl)-4-oxo-4H-quinazolin-3-yl]acetamide]
18 | 100 to 1000 | C=CCNC(=O)Cn1c(-c2ccccc2)nc2ccc(-c3cccc(CN4CCCCC4)c3)cc2c1=O [EXAMPLE 7x, N-Allyl-2-[4-oxo-2-phenyl-6-(3-piperidin-1-ylmethylphenyl)-4H-quinazolin-3-yl]acetamide]
19 | 10 to 100 | COc1cccc(-c2nc3ccc(-c4ccc(CN5CCC5)o4)cc3c(=O)n2CC(=O)NC(C)C)c1 [EXAMPLE 9a, 2-[6-(5-Azetidin-1-ylmethylfuran-2-yl)-2-(3-methoxyphenyl)-4-oxo-4H-quinazolin-3-yl]-N-isopropylacetamide]
20 | 10 to 100 | COc1cccc(-c2nc3ccc(/C=C/CCN4CCOCC4)cc3c(=O)n2CC(=O)NC(C)C)c1 [EXAMPLE 10b, N-Isopropyl-2-[2-(3-methoxyphenyl)-6-(4-morpholin-4-ylbut-1-enyl)-4-oxo-4H-quinazolin-3-yl]acetamide]
21 | 10 to 100 | COc1cccc(-c2nc3ccc(CCCCN4CCCC4)cc3c(=O)n2CC(=O)NC(C)C)c1 [EXAMPLE 11b, N-Isopropyl-2-[2-(3-methoxyphenyl)-4-oxo-6-(4-pyrrolidin-1-ylbutyl)-4H-quinazolin-3-yl]acetamide]
22 | 100 to 1000 | COc1cccc(-c2nc3ccc(OCCC4CCCCN4C)cc3c(=O)n2CC(=O)NC(C)C)c1 (stereo not drawn) [EXAMPLE 12a, N-Isopropyl-2-[2-(3-methoxyphenyl)-6-[2-(1-methylpiperidin-2-yl)ethoxy]-4-oxo-4H-quinazolin-3-yl]acetamide]
23 | 100 to 1000 | COc1cccc(-c2nc3ccc(NCCCN4CCCCC4)cc3c(=O)n2CC(=O)NC(C)C)c1 [EXAMPLE 13a, N-Isopropyl-2-[2-(3-methoxyphenyl)-4-oxo-6-(3-piperidin-1-ylpropylamino)-4H-quinazolin-3-yl]acetamide]
24 | 100 to 1000 | COc1cccc(-c2nc3ccc(OCC4CCCN(C)C4)cc3c(=O)n2CC(=O)NC(C)C)c1 (stereo not drawn) [EXAMPLE 14a, N-Isopropyl-2-[2-(3-methoxyphenyl)-6-(1-methylpiperidin-3-ylmethoxy)-4-oxo-4H-quinazolin-3-yl]acetamide]
